Literature values, collected in patent US20190298722A1, “USE OF AN INHIBITOR OF THE DE NOVO SYNTHESIS OF PURINES, IN THE TREATMENT OF ADENYLOSUCCINATE LYASE DEFICIENCY” (ASSISTANCE PUBLIQUE-HOPITAUX DE PARIS, priority 2016, published 2019).

Columns and labels:
ADSL deficiency patients = conditions: child; not confirmed by other studies (Jurecka et al. 2015); cited from earlier work
brains of rats = conditions: infusion into the brains of rats; cited from earlier work
ADSL deficiency patient = conditions: one patient, after 9 months of treatment; cited from earlier work

O=C[C@H](O)[C@H](O)[C@H](O)CO [D-ribose]
motor coordination and seizure control (ADSL deficiency patients): improvement

Nc1c(C(=O)N[C@@H](CC(=O)O)C(=O)O)ncn1[C@@H]1O[C@H](CO)[C@@H](O)[C@H]1O [SAICAr, succinylaminoimidazole carboxamide riboside]
neuronal damage (brains of rats): significant neuronal damage

C[S+](CC[C@H](N)C(=O)[O-])C[C@H]1O[C@@H](n2cnc3c(N)ncnc32)[C@H](O)[C@@H]1O (stereo partly shown) [SAMe, S-adenosyl-1-methionine]
clinical and biological parameters (ADSL deficiency patient): no improvement

O=c1ccn([C@@H]2O[C@H](CO)[C@@H](O)[C@H]2O)c(=O)[nH]1 [uridine]
motor coordination and seizure control (ADSL deficiency patients): improvement
